Earlier results as cited in US20080279952A1, “Controlled-Release Flupirtine Compositions, Compacts, Kits and Methods of Making and Use Thereof” (priority 2007, published 2008).

Tests used:
[1] = in vivo
[2] = in vivo; remark: listed apart in the source

Compound | portion of the administered dose metabolized in the liver [1] | analgesic effect as percentage of that of flupirtine [2]
CCOC(=O)Nc1ccc(NCc2ccc(F)cc2)nc1N [flupirtine] | Approximately 75% | –
CC(=O)Nc1ccc(NCc2ccc(F)cc2)nc1N [2-amino-3-acetamino-6-(4-fluor)-benzyl-amino-pyridine] | – | about 25%
